In patent publication US20050154046A1, “Methods of treating an inflammatory-related disease” (priority 2004, published 2005):

Tested on: DSS-induced acute ulcerative colitis
Assay: DSS-induced acute ulcerative colitis in Balb/c mice
Type: in vivo
Details: 7 days
From the text: Materials: […] A suspension of Meisoindigo was freshly prepared in 0.5% sodium methylcellulose and given orally for the animal tests described below. DSS (Dextran Sulfate Sodium salt, molecular weight: 36,000-44,000) was purchased from ICN Biomedicals. Other chemicals used in the following experiments were purchased from Sigma. Pathogen-free female Balb/c mice at 12 weeks of age with body weights from 22 to 25 grams were housed 5 per cage, and given, ad libitum, fresh tap water and commercial rodent pellets. Animal rooms were controlled at 24±2° C. with a relative humidity of 60±5% and a 12 hour light/dark cycle (07:00-19:00 hr). Induction of Acute Ulcerative Colitis DSS-induced colitis in Balb/c Mice: Colitis was induced by DSS in drinking water (MW 36,000-50,000, ICN biochemicals) as described previously (112). Briefly, the mice were randomly divided into 3 groups composed of 10 mice each. In the negative control group (Group 1), mice were given fresh tap water ad libitum and MF pellets, freshly changed twice a week, for 7 days. In the positive control group (DSS group, or Group 2), 5% DSS in tap water was given for 7 days to induce colitis, and the mice were fed with MF pellets. In the DSS-Meisoindigo group (test group or Group 3), mice were given 5% DSS drinking water and given Meisoindigo orally once a day at a dose of 50 mg/kg for 7 consecutive days. Fecal indications of colitis were recorded daily, including body weight and nature of feces (loose and/or bleeding or occult blood). Mice were then sacrificed. Colon tissues were taken, fixed in 10% formalin/PBS, and embedded in paraffin. To minimize physical artifacts, the removed colon was put onto a thick qualitative filter paper without stretching. The colon was then exposed inside out by cutting it longitudinally. The slides were stained with H&E and blindly examined histochemically by 3 technician/pathologists. All data was expressed as a mean±SD.

[1] = 50 mg/kg orally once a day, 5% DSS

With `CN1C(=O)/C(=C2/C(=O)Nc3ccccc32)c2ccccc21` [Meisoindigo] as the compound, how does the “reduction of the ulcerations versus positive control group” value (50 mg/kg orally once a day) read?
The value was 55%.

What about the “animals with occult blood” value [1] of the same compound?
The value was 40%.

What about the “other symptoms such as loose stool” value [1] of the same compound?
Its value is “less severe than that of the control group”.

And the “ulcerative damage of the colon (count under microscope)” value (50 mg/kg orally, positive control 6.38±2.20)?
Its value is 2.89±1.46.
